From patent publication US10717733B2, “Haloallylamine indole and azaindole derivative inhibitors of lysyl oxidases and uses thereof” (PHARMAXIS LTD., priority 2016, dated 2020)
Where a name gives a salt, the structure may show the parent alone.

Experiments:
[1] = test system: CCl4 induced liver fibrosis; assay: CCl4 induced liver fibrosis model; assay type: in vivo, rat; details: 0.1-100 mg/Kg
Experimental: An analysis of the use of LOXL2 inhibitors to treat inflammatory/fibrotic diseases is performed through the use of a CCl4 induced liver fibrosis model. Liver injury is frequently followed by complete parenchymal regeneration due to regenerative potency of hepatocytes. Continuous liver injury due to the administration of CCl4 leads to extracellular matrix accumulation, accompanied by recurrent hepatocyte necrosis, inflammation, and regenerative processes, causing liver fibrosis and consequently liver cirrhosis (see Natsume, M., et al., Attenuated liver fibrosis and depressed serum albumin levels in carbon tetrachloride-treated IL-6-deficient mice. J. Leukoc. Biol., 1999, 66, 601-608 also See Yao, Q, Y., et al. Inhibition by curcumin of multiple sites of the transforming growth factor-beta1 signalling pathway ameliorates the progression of liver fibrosis induced by carbon tetrachloride in rats. BMC Complement Altern Med. 2012 Sep. 16; 12(1):156.)
Rats are administered orally with CCl4 at a concentration of 0.25 μL/g in olive oil, 3 times per week for 6 weeks. Compound 25 is given 0.1-100 mg/Kg throughout the period of the experimental procedure or only 3 weeks after CCl4 administration and then throughout the entire study. […]

[2] = test system: myocardial infarction induced fibrosis; assay: Myocardial infarction induced fibrosis (carotic ligation) model; assay type: in vivo, mouse; details: mice, 0.1-100 mg/Kg once a day oral gavage, FIG. 5
Text: Carotic ligation is a widely accepted experimental model to induce cardiac fibrosis and to determine the anti-fibrotic activity of therapeutic agents.
In mice, the chest is opened via a left thoracotomy. The left coronary artery is identified visually using a stereo microscope, and a 7-0 suture is placed around the artery 1-2 mm below the left auricle. Permanent occlusion of the left coronary artery resulted from its ligation with the suture. Myocardial ischemia was confirmed by pallor in heart color and ST-segment elevation. (see Parajuli et al. Phosphatase PTEN is critically involved in post-myocardial infarction remodeling through the Akt/interleukin-10 signaling pathway Basic Res Cardiol (2012) 107:248).
Mice were subjected to sham or carotic ligation surgery. At 24 hrs post-surgery, echocardiography was performed on the mice. Mice were treated with compound 25 0.1-100 mg/Kg once a day for 21 (7 days after carotic ligation) or 28 days or saline as vehicle controls by oral gavage. At the end of the experiment, echocardiography was repeated to assess left ventricular function and remodeling. Then mice were euthanized for heart collection. Each heart was photographed and fixed with 10% formalin. Hearts were sectioned for Masson's trichrome stain to measure fibrosis (See FIG. 5).

Question: What does the source list for `Cc1c(-c2cccc(S(=O)(=O)N(C)C)c2)c2ncccc2n1C/C(F)=C/CN` [Compound 25, (Z)-3-(1-(4-amino-2-fluorobut-2-en-1-yl)-2-methyl-1H-pyrrolo[3,2-b]pyridin-3-yl)-N,N-dimethylbenzenesulfonamide Dihydrochloride]?
Answer: inhibition of liver collagen by hydroxyproline analysis ([1]; CCl4 model, statistically significant): > 30%; reduction of liver fibrosis by liver sirius red staining with quantification ([1]; rats, CCl4 orally 6 weeks, vs vehicle-treated group): up to 50%; fibrosis after carotic ligation (Masson's trichrome stain) [2]: reduce fibrosis
